Some results are limits rather than exact numbers.

One assay has as its system tissue calcification. Description: In vivo tissue calcification (calcium content by ICP-OES) in vitamin D3-induced limb ischemia rat model. The note with it: SD rats, vitamin D3 150,000 IU/kg s.c. D1-D3, 30 mg/kg s.c. daily D1-D5, sacrifice D5. The procedure: (§1) The effects of compounds 1, 6, 9, 14, 18, 31, and 39 over blood perfusion and tissue calcification after the inception of limb ischemia were tested using a rat model for a duration of 5 days. Limb ischemia was induced to all groups from D1 to D3 excepting the sham group, to which no ischemia was induced. The animals were administered placebo and active agent formulations from D1 to D5. Observations were taken at several points during the treatment from D0 to D5. All animals were weighed every day before treatment. Seventy-two male Sprague Dawley (SD) rats (Envigo Corp., Huntingdon, GB) weighing approximately 150-200 g were used. The rats were fed with a […]® Rod14-H diet ([…] GmbH, Soest, DE). The rats were divided in 9 groups, 8 animals per group, as follows: • Group 1-Control (Sham) • Group 2-Physiological saline solution • Group 3-Compound 1 • Group 4-Compound 6 • Group 5-Compound 9 • Group 6-Compound 14 • Group 7-Compound 18 • Group 8-Compound 31 • Group 9-Compound 39 Limb ischemia was induced in the rats of groups 2-9 by subcutaneous administration of 150,000 IU/kg vitamin D3 (cholecalciferol, Duphafral D3 1000; Zoetis Inc., Parsippany, NJ, US) in physiological saline solution (2 mL/kg) every day during D1 to D3. The rats of group 1 were not administered vitamin D3. The rats in groups 1 and 2 were administered 2 mL/kg of physiological saline solution daily from D1 to D5 via subcutaneous route. The animals in groups 3-9 were administered subcutaneously 30 mg/kg of compounds 1, 6, 9, 14, 18, 31, and 39, respectively, in physiological saline solution (2 mL/kg), every day from D1 to D5. All rats of groups 1-9 were sacrificed on D5 30 minutes after dosing for determining their Ca baseline values. The animals were anesthetized by isoflurane inhalation. The whole aorta, carotids, femoral arteries, heart, and right kidney of the subjects were collected for calcium content measurement. The tissues were lyophilized for 48-72 h and weighed. The lyophilized tissues were then digested using a 1:1 HNO3:HClO4 mixture in a dry bath incubator for 2-4 h at 180° C. The digested tissues were subsequently diluted using ultra-pure MilliQ® water (MilliporeSigma (Merck KGaA), Burlington, MA, US) to a final volume of 5 mL (i.e., for femoral arteries and carotids) of 10 mL (i.e., for heart, kidneys, and aorta). Calcium content was quantified via inductively coupled plasma optical emission spectrometry (ICP-OES) using an Optima 7300 DV ICP-OES System spectrometer (PerkinElmer, Inc., Waltham, MA, US) according to the manufacturer's instructions. Average blood perfusion recovery compared to vehicle and sham were also calculated. Recovery for sham was 100%. Blood perfusion recovery calculated was using the following equation: 100-((BP sham-BP new drug)/(BP sham-BP vehicle)*100).

A further assay relates to blood perfusion. Description: In vivo blood perfusion (laser doppler perfusion imaging) in vitamin D3-induced limb ischemia rat model. The note with it: average blood perfusion recovery vs vehicle and sham (sham 100%), SD rats, 30 mg/kg s.c. daily D1-D5. As for the experimental part: as §1, with “to D5. Limb functional and ischemia status were evaluated by using a laser doppler perfusion imaging apparatus PeriCam PSI Normal Resolution (Perimed AB, Järfälla, SE) in all groups at D0 and D5. The perfusion difference and perfusion ratio were calculated by comparing the baseline and either D0 or D5 readings for each group. In addition, the blood perfusion ratio of each treatment group (i.e., groups 2 to 9) to sham group was also calculated. All rats” for “to D5. All rats”

A short description of assay [1]: In vitro inhibition of calcium phosphate crystallization in human plasma (spectrophotometric assay). It is filed as biochemical. The settings on record: 0-100 μM, 1.5 mM phosphate, 12.5 mM calcium, pH 7.4, absorbance 550 nm, slope 6-24 min, read-out: Relative Potency. In outline:
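Human plasma spiked with compound (0-100 μM), centrifuged, then brought to final 1.5 mM phosphate and 12.5 mM calcium, pH 7.4. Absorbance at 550 nm read every 3 min for 30 min at rt; inhibition from slopes (6-24 min, absorbance vs log time) relative to blank plasma.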

With `O=P([O-])([O-])O[C@@H]1[C@@H](OCCCCCO)[C@H](OP(=O)([O-])[O-])[C@H](OP(=O)([O-])[O-])[C@H](OP(=O)([O-])[O-])[C@H]1OCCCCCO.[Na+].[Na+].[Na+].[Na+].[Na+].[Na+].[Na+].[Na+]` [Compound 6, 4,6-O-bis(5-hydroxypentyl)-myo-inositol-1,2,3,5-tetrakis(phosphate) octasodium salt], the “Inhibition of calcification (%) Aorta” value in the assay on tissue calcification (aorta) was “Over (Average inhibition percentage over or under 25% inhibition of calcification.)”. Further, the “Inhibition of calcification (%) Carotid” value in the assay with tissue calcification (carotid) was “Under (Average inhibition percentage over or under 25% inhibition of calcification.)”. Moreover, the “Inhibition of calcification (%) Femoral” value in the assay on tissue calcification (femoral arteries) was “Over (Average inhibition percentage over or under 25% inhibition of calcification.)”. The “Inhibition of calcification (%) Heart” value in the assay on tissue calcification (heart) is on record as “Over (Average inhibition percentage over or under 25% inhibition of calcification.)”. Further, the “Inhibition of calcification (%) Kidney” value in the assay with tissue calcification (right kidney) was “Over (Average inhibition percentage over or under 25% inhibition of calcification.)”. In the assay with blood perfusion, the “BP recovery (%)” value was “Over (Average blood perfusion recovery over or under 25%.)”. Further, in assay [1], the EC50 is at most 5 µM.

The record behind these values is patent publication US20240109924A1, “IP4-4,6 SUBSTITUTED DERIVATIVE COMPOUNDS” (SANIFIT THERAPEUTICS, S.A., priority 2021, published 2024).
